“Also recorded” adds a separate entry of the source.
System: SKOV3 cells
Assay: Effect of SAHA on SKOV3 3D aggregates and cellular bridges cultured on Si—TiB2 substrate
Assay type: cell-based
Procedure: Cell culture of ovarian cancer cell lines: SKOV3 and OVCAR3 cell lines were cultured in Cancer Media (CM) ([…] with glutamine (02-0205 VWR Life Science), 1% antibiotics (Sigma-Aldrich A5955), and 0.1% insulin (ABM TM053)). For cell culture on substrates CM was supplemented with 10 ng/mL human FGF2 (Sigma-Aldrich F0291)+1% heparin (Sigma-Aldrich H3393). Cells were cultured in a humidified incubator at 37° C. with 5% CO2.
The inventors used their Si-diborides substrates (described in [200]) for culture of SKOV3 (ATCC® HTB-77™) cancer cells of high invasive potential. Cells were seeded on Si—TiB2 substrates (2×2 cm) at a density of 600/mm^2, and each substrate will be placed in a well of a 24-well dish and cultured in RPMI 1640 with glutamine, 20% FBS, 1% antibiotics, 0.01 mg/mL Insulin, 10 ng/ml FGF2 and 1% heparin 1 over 10 days to establish a monolayer (days 1-3) or allowed to form 3D aggregates (days 4-10). A 2×2 cm substrate can accommodate at least 500, 300 μm circle patterns (aka 500 3D aggregates of ˜150-200 μm diameter and 60-80 μm thickness). Based on preliminary data, the rate of “cellular bridge” formation is 13%/substrate or 50%/aggregate. As shown in FIGS. 9A-C, FIGS. 10A-C and FIG. 11A-B, highly invasive SKOV3 begin as monolayers and then self-assemble to form 3D aggregates. Importantly, the inventors are able to control dynamics of aggregation and size and number of aggregates by tuning pattern geometry and cell seeding density. 3D aggregates of static (compact aggregates without any migratory sequalae) and migratory phenotype (identified via cells migrating away from an aggregate and establishing connections with neighboring aggregates; see FIGS. 12A-B) can be identified post-culturing at day 2, day 4, day 6 and day 8. […] Thus, these capture time points have data on cell monolayers (Day 2), self-assembly (Days 3-4) and compact 3D aggregates (Days 5-8). Migratory 3D aggregate phenotypes are visible at Days 5 with maximum numbers of cellular bridges across aggregates seen at Days 6-7. […]

O=C(CCCCCCC(=O)Nc1ccccc1)NO [SAHA, suberoylanilide hydroxamic acid]
effect on size of 3D aggregates (3 μM SAHA, treatment on day 7 post-seeding): reduce the size of 3D aggregates | effect on cellular bridges (invading multicellular microstructures) (3 μM SAHA, treatment on day 7 post-seeding, imaged Day 9): disassociates invading multicellular microstructures; also recorded: loss of cellular bridges | reduction in size (aggregate depth) post-treatment with SAHA (SKOV3 3D aggregates on Si—TiB2, treated day 7 for 48 hours, compared to controls, mean±SEM, n=3, p<0.001): ~50%

From US20230133393A1, “DIBORIDE MICROPATTERNED SURFACES FOR CELL CULTURE” (University of Houston System, priority 2020, published 2023)
